The supplement of paper PMC11061612

How the values were obtained:
Test in all cases: Bliss excess, mean over the matrix (fraction); higher = more synergy
42-MG-BA (Glioblastoma) = test system: 42-MG-BA (Glioblastoma)
Method in brief: (§1)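 Cell lines grown in DMEM/F12 or RPMI with 10% FBS were plated in 1536-well plates and held 24 hours at 37°C, 5% CO2 before 72 hours of exposure to two-drug dose matrices, with DMSO typically at 0.2%. CellTiter-Glo 2.0 luminescence gave viability, which was converted to inhibition. Vehicle wells were set to 0 and blank wells to 1. Combination Emax is the second-highest inhibition in the matrix, and Bliss excess is the observed combination effect minus the expected EA + EB − EA·EB, where EA and EB are the single-agent effects.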

AGS (Gastric Carcinoma) = test system: AGS (Gastric Carcinoma)
Method in brief: as §1

[1] = test system: CCRF-CEM (T-Lymphoblastic Leukemia)
Method in brief: as §1

[2] = test system: CaR-1 (Colorectal Carcinoma)
Method in brief: as §1

[3] = test system: DEL (T-Cell Non-Hodgkin's Lymphoma)
Method in brief: as §1

ES4 (Ewing's Sarcoma) = test system: ES4 (Ewing's Sarcoma)
Method in brief: as §1

[4] = test system: LB831-BLC (Bladder Carcinoma)
Method in brief: as §1

[5] = test system: LU-135 (Small Cell Lung Carcinoma)
Method in brief: as §1

[6] = test system: MDA-MB-361 (Breast Carcinoma)
Method in brief: as §1

[7] = test system: ME-1 (Acute Myeloid Leukemia)
Method in brief: as §1

[8] = test system: MFE-296 (Endometrial Carcinoma)
Method in brief: as §1

[9] = test system: NCI-H2085 (Non-Small Cell Lung Carcinoma)
Method in brief: as §1

[10] = test system: RC-K8 (B-Cell Non-Hodgkin's Lymphoma)
Method in brief: as §1

[11] = test system: Ramos-2G6-4C10 (Burkitt's Lymphoma)
Method in brief: as §1

[12] = test system: SK-ES-1 (Ewing's Sarcoma)
Method in brief: as §1

[13] = test system: SNU-5 (Gastric Carcinoma)
Method in brief: as §1

T98G (Glioblastoma) = test system: T98G (Glioblastoma)
Method in brief: as §1

[14] = test system: TE-15 (Esophageal Squamous Cell Carcinoma)
Method in brief: as §1

[15] = test system: TE-9 (Esophageal Squamous Cell Carcinoma)
Method in brief: as §1

[16] = test system: UM-UC-3 (Bladder Carcinoma)
Method in brief: as §1

Compound	Bliss excess (42-MG-BA (Glioblastoma))	Bliss excess (AGS (Gastric Carcinoma))	Bliss excess [1]	Bliss excess [2]	Bliss excess [3]	Bliss excess (ES4 (Ewing's Sarcoma))	Bliss excess [4]	Bliss excess [5]	Bliss excess [6]	Bliss excess [7]	Bliss excess [8]	Bliss excess [9]	Bliss excess [10]	Bliss excess [11]	Bliss excess [12]	Bliss excess [13]	Bliss excess (T98G (Glioblastoma))	Bliss excess [14]	Bliss excess [15]	Bliss excess [16]
Cc1c2c(nn1C)CSCc1cc(n(C)n1)CSc1cc(c3ccccc3c1)OCCCc1c(C(=O)O)n(C)c3c-2c(Cl)ccc13 [AZD5991] + CC1(C)CCC(CN2CCN(c3ccc(C(=O)NS(=O)(=O)c4ccc(NCC5CCOCC5)c([N+](=O)[O-])c4)c(Oc4cnc5[nH]ccc5c4)c3)CC2)=C(c2ccc(Cl)cc2)C1 [Venetoclax] (first compound max 1 µM, 7x7, partner max 1 µM)	-0.025	0.0132	0.0935	-0.0225	0.0081	-0.0286	-0.0229	0.0178	0.0194	0.0654	-0.002	-0.0042	-0.0142	0.0339	0.167	-0.0127	0.0004	-0.05	0.0041	-0.0062
Cc1c2c(nn1C)CSCc1cc(n(C)n1)CSc1cc(c3ccccc3c1)OCCCc1c(C(=O)O)n(C)c3c-2c(Cl)ccc13 [AZD5991] + CCN(CCO)CCCOc1ccc2c(Nc3cc(CC(=O)Nc4cccc(F)c4)[nH]n3)ncnc2c1 [AZD2811] (first compound max 1 µM, 7x7, partner max 1 µM)	0.0282	0.0374	-0.0343	-0.0004	-0.0295	0.0003	0.0076	0.0109	0.0399	0.0139	0.0533	-0.0575	0.09	0.141	0.0028	0.0306	-0.0339	0.0649	-0.0235	0.0296
Cc1c2c(nn1C)CSCc1cc(n(C)n1)CSc1cc(c3ccccc3c1)OCCCc1c(C(=O)O)n(C)c3c-2c(Cl)ccc13 [AZD5991] + CN(C)CCCOc1ccc(-c2ccc3ncc4c(c3c2)n(C2CCOCC2)c(=O)n4C)cn1 [AZD0156] (first compound max 1 µM, 7x7, partner max 1 µM)	0.0259	-0.0258	0.0467	-0.0271	-0.0174	0.0042	0.0072	-0.0413	-0.016	0.0237	0.0092	-0.0266	0.0237	0.0226	-0.004	0.0154	0.008	0.0128	-0.0529	-0.0084
Cc1c2c(nn1C)CSCc1cc(n(C)n1)CSc1cc(c3ccccc3c1)OCCCc1c(C(=O)O)n(C)c3c-2c(Cl)ccc13 [AZD5991] + C[C@@H]1COCCN1C2=NC(=NC(=C2)C3(CC3)[S@](=N)(=O)C)C4=C5C=CNC5=NC=C4 [AZD6738] (first compound max 1 µM, 7x7, partner max 10 µM)	0.041	0.0629	0.0397	-0.0134	0.004	-0.0118	0.0641	0.0274	0.0182	0.0454	0.0723	0.0312	0.0114	0.0097	0.017	-0.0075	-0.0069	-0.0441	-0.0039	0.0159
Cc1c2c(nn1C)CSCc1cc(n(C)n1)CSc1cc(c3ccccc3c1)OCCCc1c(C(=O)O)n(C)c3c-2c(Cl)ccc13 [AZD5991] + C[C@@H](Nc1cc(F)cc(F)c1)c1cc(C(=O)N(C)C)cc2c(=O)cc(N3CCOCC3)oc12 [AZD8186] (first compound max 1 µM, 7x7, partner max 3 µM)	-0.0084	0.0073	0.0055	-0.0187	0.0058	-0.0286	0.0352	0.0307	-0.0102	-0.037	0.0197	-0.043	-0.0418	-0.0074	0.023	0.0155	-0.001	-0.0254	-0.0274	0.0098
Cc1c2c(nn1C)CSCc1cc(n(C)n1)CSc1cc(c3ccccc3c1)OCCCc1c(C(=O)O)n(C)c3c-2c(Cl)ccc13 [AZD5991] + Cc1cc2ncnn2cc1Nc1ncc2c(n1)n(C1CCOCC1)c(=O)n2C [AZD7648] (first compound max 1 µM, 7x7, partner max 10 µM)	-0.0299	-0.037	0.0837	-0.0365	0.0005	-0.0593	-0.034	-0.0237	-0.0344	0.013	-0.0101	-0.0493	0.0148	0.0227	0.0001	0.0269	-0.0663	-0.0325	0.0162	0.0053
Cc1c2c(nn1C)CSCc1cc(n(C)n1)CSc1cc(c3ccccc3c1)OCCCc1c(C(=O)O)n(C)c3c-2c(Cl)ccc13 [AZD5991] + Cn1cnc2c(F)c(Nc3ccc(Br)cc3Cl)c(C(=O)NOCCO)cc21 [Selumetinib] (first compound max 1 µM, 7x7, partner max 3 µM)	-0.03	0.186	0.0383	-0.03	0.0049	-0.0173	-0.018	-0.0003	-0.0168	0.162	0.0234	-0.0344	0.0127	-0.0074	-0.0186	0.0262	0.0157	0.0114	-0.0097	0.0332
NC1(C(=O)N[C@@H](CCO)c2ccc(Cl)cc2)CCN(c2ncnc3[nH]ccc23)CC1 [Capivasertib] + CC(=O)c1c(C)c2cnc(Nc3ccc(N4CCNCC4)cn3)nc2n(C2CCCC2)c1=O [Palbociclib] (first compound max 10 µM, 7x7, partner max 10 µM)	-0.0633	0.0794	0.0861	0.0034	0.0706	0.074	-0.0586	-0.0357	-0.0161	-0.11	-0.0349	-0.0561	-0.0014	-0.0512	0.0865	-0.0253	0.0304	0.0281	-0.0271	0.0504
NC1(C(=O)N[C@@H](CCO)c2ccc(Cl)cc2)CCN(c2ncnc3[nH]ccc23)CC1 [Capivasertib] + CC(C)n1c(=O)n(C)c2cnc3cc(F)c(-c4ccc(OCCCN5CCCCC5)nc4)cc3c21 [AZD1390] (first compound max 10 µM, 7x7, partner max 0.3 µM)	-0.0608	-0.108	-0.0847	-0.0401	0.0336	-0.0585	-0.0383	-0.0242	-0.0555	-0.0319	-0.0695	-0.0564	-0.0149	-0.0205	0.0079	-0.0708	-0.0652	-0.0774	-0.0431	-0.0211
NC1(C(=O)N[C@@H](CCO)c2ccc(Cl)cc2)CCN(c2ncnc3[nH]ccc23)CC1 [Capivasertib] + CCN(CCO)CCCOc1ccc2c(Nc3cc(CC(=O)Nc4cccc(F)c4)[nH]n3)ncnc2c1 [AZD2811] (first compound max 10 µM, 7x7, partner max 1 µM)	-0.0306	0.0129	0.0001	-0.0236	-0.0743	0.0317	-0.0179	-0.0334	0.0141	-0.055	-0.0593	-0.0318	-0.0114	0.139	-0.0359	-0.0103	0.0344	-0.0095	-0.0124	-0.0255
NC1(C(=O)N[C@@H](CCO)c2ccc(Cl)cc2)CCN(c2ncnc3[nH]ccc23)CC1 [Capivasertib] + COc1nnc2ccc(N3CCC(c4ccc(OCCN5CCN(C)C(=O)[C@H]5C)cc4)CC3)nn12 [AZD5153] (first compound max 10 µM, 7x7, partner max 1 µM)	0.0611	0.0228	0.058	0.0378	-0.0363	-0.0175	0.0335	-0.005	0.0588	-0.0161	0.0901	0.044	-0.0101	0.0722	0.0815	0.0149	0.0908	0.0642	0.0567	-0.0158
NC1(C(=O)N[C@@H](CCO)c2ccc(Cl)cc2)CCN(c2ncnc3[nH]ccc23)CC1 [Capivasertib] + C[C@@H]1COCCN1C2=NC(=NC(=C2)C3(CC3)[S@](=N)(=O)C)C4=C5C=CNC5=NC=C4 [AZD6738] (first compound max 10 µM, 7x7, partner max 10 µM)	-0.0514	-0.0449	0.0092	-0.0194	0.0172	-0.0919	-0.0161	0.0393	-0.11	-0.0086	-0.0508	-0.0192	-0.0856	0.0183	-0.0831	-0.0375	-0.0557	-0.0494	-0.0415	0.0085
NC1(C(=O)N[C@@H](CCO)c2ccc(Cl)cc2)CCN(c2ncnc3[nH]ccc23)CC1 [Capivasertib] + Cn1cnc2c(F)c(Nc3ccc(Br)cc3Cl)c(C(=O)NOCCO)cc21 [Selumetinib] (first compound max 10 µM, 7x7, partner max 10 µM)	0.0697	0.0697	0.0792	0.0076	0.054	-0.0219	-0.133	0.0413	0.0297	-0.0089	-0.0133	0.0035	0.0248	-0.0166	0.0507	0.0345	0.0241	0.0234	-0.0011	0.0946
Cc1nc(Nc2ncc(C(=O)Nc3c(C)cccc3Cl)s2)cc(N2CCN(CCO)CC2)n1 [Dasatinib] + CC(=O)Nc1cccc(-n2c(=O)n(C3CC3)c(=O)c3c(Nc4ccc(I)cc4F)n(C)c(=O)c(C)c32)c1 [Trametinib] (first compound max 2 µM, 7x7, partner max 1 µM)	-0.023	0.0433	-0.0032	-0.0711	0.0076	-0.0951	-0.0529	-0.0258	-0.0072	0.0126	-0.0328	0.0168	-0.0338	0	-0.0256	-0.0708	0.0187	-0.0414	-0.0104	0.112
